From US7820690B2, “Method of treating or inhibiting a non-digestive tract derived abdominal disorder associated with pain using a 5-HT, receptor antagonist” (Solvay Pharmaceuticals GmbH, priority 2004, dated 2010)
Where two headings read alike, the source gives them in different places.

System: rats with cyclophosphamide-induced cystitis
Test: cystometry in rats with cyclophosphamide-induced cystitis
Type: in vivo, male Wistar rats
Conditions: for inhibition at 0.01 mg/kg / inhibition at 0.1 mg/kg: Rattus norvegicus, iv; for inhibition at 0.01 mg/kg: group 4, cilansetron 0.01 mg/kg i.v.; for inhibition at 0.1 mg/kg: group 5, cilansetron 0.1 mg/kg i.v.
Method: In this test model, the effect of 5-HT3 receptor antagonists on rats with cyclophosphamide-induced cystitis was investigated.
Inflammation of the bladder responsible for bladder overactivity was induced by an intraperitoneal (i.p.) cyclophosphamide injection (150 mg/kg, i.p.) 48 hours before testing (Maggi et al., J Auton Nerv Syst 38 (1992) 201) using male Wistar rats weighing 300-350 g. The rats were anesthetized with urethane delivered subcutaneously in saline (1.2 g/kg), and their temperature was maintained at 37° C. Following a midline abdominal incision, a catheter was inserted through the bladder dome and sealed with a tie. The catheter was connected via a T-tube to a pressure transducer and a syringe pump, to allow filling of the bladder with warm (37° C.) saline at 50 μl/min simultaneously with recording of intravesical pressure. This catheter was later used for cystometry.
For each voiding and non-voiding contraction, the threshold pressure (ThP, corresponding to the bladder pressure at the onset of the voiding contraction (mm Hg)), the maximal voiding pressure (MP, defined by the maximal bladder pressure reached during voiding contraction (mm Hg)) the basal pressure (BaP, defined by the lowest bladder pressure reached after the voiding contraction (mm Hg)) and the area under the curve of the bladder pressure (AUP) during voiding (mm Hg×s) was calculated for each rat and averaged for each condition. In addition, the frequency of contractions was determined.
Test groups consisting of 10 rats each were used. Drug treatments were carried out as described in the following Table 1.
In groups 2 through 5, cystitis was induced by administration of cyclophosphamide 150 mg/kg intraperitoneally (i.p.) 48 hours before the experiment. Group 1 served as a control group. Drugs or vehicle to be tested were injected 10 minutes before the beginning of cystometry. Besides […] doses of cilansetron (groups 4-5), HOE140 (D-Arginyl-[Hyp3, Thi5, D-Tic7, Oic8]-bradykinin), a bradykinin 2 receptor antagonist, was used as a reference standard known to be active in this model. During the cystometry the pressure changes due to transvesical perfusion of warm saline at 50 μl/min were recorded over 60 minutes. Parameters (as outlined above) were analyzed for each bladder filling.

[1] = read-out: % inhibition of cystitis effects, basal pressure
[2] = read-out: % inhibition of cystitis effects, frequency
[3] = read-out: % inhibition of cystitis effects, threshold pressure
[4] = group 4, cyclophosphamide cystitis + cilansetron 0.01 mg/kg i.v.
[5] = group 5, cyclophosphamide cystitis + cilansetron 0.1 mg/kg i.v.
[6] = HOE140 130 μg/kg i.v., effect of treatment in cystitis rats
[7] = group 3, cyclophosphamide cystitis + HOE140 130 μg/kg i.v.

Cc1nccn1C[C@H]1CCc2c(c3cccc4c3n2CCC4)C1=O [cilansetron, (R)-(−)-4,5,6,8,9,10-hexahydro-10-[(2-methyl-1H-imidazol-1-yl)methyl]-11H-pyrido-[3,2,1-jk]-carbazol-11-one]
inhibition at 0.01 mg/kg [1]: 50%
inhibition at 0.01 mg/kg [2]: 45%
inhibition at 0.01 mg/kg [3]: 60%
inhibition at 0.1 mg/kg [1]: 83%
inhibition at 0.1 mg/kg [2]: 35%
inhibition at 0.1 mg/kg [3]: 100%
effectiveness compared with reference compound HOE 140 (cilansetron 0.01 mg/kg i.v.): similarly effective to, or even more effective than
symptoms of bladder overactivity associated with cyclophosphamide pretreatment (cilansetron 0.01 and 0.1 mg/kg, compared with HOE140): reduced these symptoms to an equivalent or slightly greater extent
beneficial effect compared with HOE140 (cystometry in rats with cyclophosphamide-induced cystitis, overall conclusion): superior
basal pressure [4]: 16 mmHg
frequency of bladder contractions [4]: 26 h⁻¹
threshold pressure [4]: 17 mmHg
basal pressure [5]: 14 mmHg
frequency of bladder contractions [5]: 28 h⁻¹
threshold pressure [5]: 15 mmHg

D-Arginyl-[Hyp3, Thi5, D-Tic7, Oic8]-bradykinin [HOE140]
area under the curve of the bladder contractions [6]: not affected
first micturition volume [6]: not affected
micturition pressure [6]: not affected
symptoms of bladder overactivity associated with cyclophosphamide pretreatment (acute treatment, HOE140 130 μg/kg): reduced the symptoms of bladder overactivity
% inhibition of cystitis effects, basal pressure (group 3, HOE140 130 μg/kg i.v.): 50%
% inhibition of cystitis effects, frequency (group 3, HOE140 130 μg/kg i.v.): 25%
% inhibition of cystitis effects, threshold pressure (group 3, HOE140 130 μg/kg i.v.): 60%
frequency of bladder contractions [7]: 30 h⁻¹
threshold pressure [7]: 17 mmHg
basal pressure (group 3, cyclophosphamide cystitis + HOE140 130 μg/kg i.v., 10 minutes before cystometry): 16 mmHg
